From patent publication US6506791B2, “Method of treatment of protozoan infections in fish” (Jacksonville State University, priority 2000, dated 2003)

Tests used:
Ick [1] = assay: LIGHT EXPERIMENT under greenhouse conditions (effect of light intensity); assay type: cell-based, Ichthyophthirius multifiliis
Procedure: (§1) An in vivo study was conducted involving the direct dosing of Ick parasites with Phloxine B. 1 μl of Ick theronts, both free-swimming tomites and non-ruptured cysts, and 9 μl of a Phloxine solution containing either 1000, 100, 10, 1 and 0 ppm of Phloxine B were placed into 100×15 mm tri-plate petri dishes providing 3 replicates for each treatment. 1 set of the plates was left exposed to ambient light (6 mE m^−2s^−1) for 5 hr (LIGHT EXPERIMENT), while the other set was kept in the dark for 4 hr then exposed to ambient light for 1 hr (DARK EXPERIMENT). Percent mortality was assessed, then both light and dark plates received a second dose of Phloxine B at the same concentration as before and treated in the same manner.
An experiment was designed to test the effect of light intensity on the effectiveness of Phloxine B treatment of Ick. The previous experiments described in Examples 1 and 2 were conducted in the lab. The ambient light intensity in the lab was very low, 6 μmol m^−2s^−1. An experiment was conducted as following the protocol of Example 1, except the experiment was conducted in a greenhouse to better mimic natural light conditions.

mouse = details: cited from earlier work
dog = details: cited from earlier work
[2] = exposure to sunlight; cited from earlier work
humans = details: according to the FDA (1982); cited from earlier work
[3] = system: Ick trophozoite stage attached to the fish host; assay: Aquarium treatment of fish infected with Ick, microscopic examination; assay type: in vivo, Ichthyophthirius multifiliis; details: around 5 mg/L in aquarium, added in darkness, at least eight hours absorption, then artificial lamps
Description: The effectiveness of treatments of photoactive dyes on parasite control in a particular fish population can be determined by those skilled in the art by monitoring the general behavior of the fish (swimming, feeding, etc.) and the appearance of the parasite by microscopic examination. For example, live Ick trophozoites may be monitored using image analysis microscopy using a Image-Pro Plus V. 4.0.0.13, available from Media Cybernetics, L.P.
In one embodiment of the invention, the photoactive dye, Phloxine B, is added as a dry powder to an aquarium containing fish infected with Ick. The Phloxine B is added to achieve a final concentration of around 5 mg/L. The Phloxine B is added to the aquarium in darkness and at least eight hours of absorption is allowed before photoactivation. Photoactivation is achieved by exposing the Ick infected fish to light from artificial lamps. […] Although this particular embodiment is performed in a laboratory setting, those skilled in the art will understand that the teachings can be adapted to a commercial operation without undue experimentation.

[4] = system: Ick theronts, both free-swimming tomites and non-ruptured cysts; assay: Direct dosing of Ick parasites with Phloxine B, DARK EXPERIMENT (lab conditions); assay type: cell-based, Ichthyophthirius multifiliis
Procedure: as §1

rat = details: cited from earlier work
Ick [5] = assay: Light and dark experiment with doubled exposure times (Example 2); assay type: cell-based, Ichthyophthirius multifiliis; details: 8 hr dark then 2 hr light or 10 hr light
Procedure: as §1
A light and dark experiment were set up following the protocol in Example 1, but exposure times were doubled—8 hr dark then 2 hr light or 10 hr light.

[6] = cited from earlier work
[7] = system: Ick theronts, both free-swimming tomites and non-ruptured cysts; assay: Direct dosing of Ick parasites with Phloxine B, LIGHT EXPERIMENT (ambient light, lab); assay type: cell-based, Ichthyophthirius multifiliis
Procedure: as §1

O=C([O-])c1c(Cl)c(Cl)c(Cl)c(Cl)c1-c1c2cc(Br)c(=O)c(Br)c-2oc2c(Br)c([O-])c(Br)cc12.[Na+].[Na+] [Phloxine B, 2′, 4′, 5′ 7′-tetrabromo-4,5,6,7-tetrachlorofluorescein, disodium salt]
Percent mortality (Ick [1]; 1 ppm): No effect | Percent mortality (Ick [1]; 10 ppm, 1 dose): No effect | Percent mortality (Ick [1]; 100 ppm, 1 dose): 50% Mortality | Percent mortality (Ick [1]; 1000 ppm, 1 dose): 100% Mortality | LD50 (mouse): 310 mg/kg | LD50 (dog): > 4600 mg/kg | Time to degradation and detoxification [2]: < 1 h | Relatively non-toxic ingested amount (humans): ≤ 1.25 mg/kg body weight | Effectiveness against trophozoite stage attached to the fish host [3]: effective against the formerly invulnerable trophozoite stage | Percent mortality ([4]; 1 ppm, 1 dose, dark 4 hr then ambient light 1 hr): No effect | Percent mortality ([4]; 1 ppm, 2 doses, dark 4 hr then ambient light 1 hr per dose): No effect | Percent mortality ([4]; 10 ppm, 1 dose, dark 4 hr then ambient light 1 hr): No effect | Percent mortality ([4]; 10 ppm, 2 doses, dark 4 hr then ambient light 1 hr per dose): No effect | Percent mortality ([4]; 100 ppm, 1 dose, dark 4 hr then ambient light 1 hr): No effect | Percent mortality ([4]; 100 ppm, 2 doses, dark 4 hr then ambient light 1 hr per dose): 10% Mortality | Percent mortality ([4]; 1000 ppm, 1 dose, dark 4 hr then ambient light 1 hr): 40% Mortality | Percent mortality ([4]; 1000 ppm, 2 doses, dark 4 hr then ambient light 1 hr per dose): 95% Mortality | LD50 (rat): 8400 mg/kg | Effect of exposure time on effectiveness of the dye (Ick [5]): longer exposure time increased the effectiveness | Water solubility [6]: greater than 120 mg/l | Percent mortality ([7]; 1 ppm, 1 dose, ambient light 5 hr): No effect | Percent mortality ([7]; 1 ppm, 2 doses, ambient light 5 hr per dose): No effect | Percent mortality ([7]; 10 ppm, 1 dose, ambient light 5 hr): No effect | Percent mortality ([7]; 10 ppm, 2 doses, ambient light 5 hr per dose): No effect | Percent mortality ([7]; 100 ppm, 1 dose, ambient light 5 hr): 20% Mortality | Percent mortality ([7]; 100 ppm, 2 doses, ambient light 5 hr per dose): 80% Mortality | Percent mortality ([7]; 1000 ppm, 1 dose, ambient light 5 hr): 80% Mortality | Percent mortality ([7]; 1000 ppm, 2 doses, ambient light 5 hr per dose): 100% Mortality | Uptake of the dye by free-swimming and encysted organisms ([7]; observation from Examples 1-3): taken up both free-swimming and encysted organisms
